Assay results from patent US20260096556A1, “AGRICULTURAL METHODS” (priority 2022, published 2026).

Test system: Phakopsora pachyrhizi
Assay: Field trials: foliar spray on soybean plants, severity of infection from Phakopsora pachyrhizi
Type: in vivo
Details: for % control (% reduction of the area under the disease pressure curve): Brazil, soybean, 3 foliar applications, 75 g ai/ha
Method: Various compounds were formulated (a commercial EC250 formulation for prothioconazole, an SC100 formulation for compound X.04), diluted into a spray solution including an adjuvant, and applied to soybean plants in a foliar broadcast spray using a handheld horizontal boom sprayer. Three applications were made over the course of the growing season, starting approximately 45 days after crop emergence, with following applications at approximately 14 day intervals. Trials were conducted across five locations in Brazil.
Assessments of severity of infection from Phakopsora pachyrhizi were made at approximately weekly intervals, based on the percentage of leaf area covered by disease lesions. This is expressed in {Table B1} as a final % severity. The performance of the treatments were calculated as % reduction of the area under the disease pressure curve for the treated plots in the trial, based on assessments up to 28 days after the third application. Samples were taken from diseased leaves in the untreated plots and evaluated for the % population frequency of the F129L mutation that generates resistance to strobilurin fungicides.
Samples of leaves were taken from the untreated plots and DNA extracted from disease lesions. qPCR analysis was conducted to determine the frequency of F129L within the sampled pathogen population.

[1] = Trial A, F129L frequency in untreated 94.33%, untreated severity 97.50%
[2] = Trial B, F129L frequency in untreated 93.67%, untreated severity 83.10%
[3] = Trial C, F129L frequency in untreated 93.00%, untreated severity 96.80%
[4] = Trial D, F129L frequency in untreated 22.00%, untreated severity 74.2%
[5] = Trial E, F129L frequency in untreated 44.67%, untreated severity 95.00%

Structure (SMILES)	% control (% reduction of the area under the disease pressure curve) [1] [%]	% control (% reduction of the area under the disease pressure curve) [2] [%]	% control (% reduction of the area under the disease pressure curve) [3] [%]	% control (% reduction of the area under the disease pressure curve) [4] [%]	% control (% reduction of the area under the disease pressure curve) [5] [%]	performance compared to prothioconazole and to a commercial standard containing prothioconazole and a standard strobilurin fungicide (trials with a high (>90%) frequency of F129L in the untreated population)
CO/C=C(\Oc1cc(C2CCCCC2)ccc1C)C(=O)OC [compound X.04, methyl (Z)-2-(5-cyclohexyl-2-methyl-phenoxy)-3-methoxy-prop-2-enoate]	91.00	45.50	95.46	71.39	63.48	superior
OC(Cc1ccccc1Cl)(Cn1nc[nH]c1=S)C1(Cl)CC1 (centres unmarked) [prothioconazole, reference compound]	72.66	28.86	63.89	72.53	67.30	–
